From the supplement of paper PMC10307832

Tests used:
Assay in all cases: relative viability (nuclei count vs DMSO), 5 days (fraction); higher = more cells survive
AGI-6780 + Palbociclib = compound: O=C(Nc1cccc(C(F)(F)F)c1)Nc1cc(S(=O)(=O)NC2CC2)ccc1-c1ccsc1 [AGI-6780] + CC(=O)c1c(C)c2cnc(Nc3ccc(N4CCNCC4)cn3)nc2n(C2CCCC2)c1=O [Palbociclib] (partner 0.5 µM)
How it was run: (§1)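 Values are medians from duplicate plates. Each reflects relative viability, defined as the nuclei count of treated wells over that of vehicle wells. Lung cancer cell lines in 1536-well plates were pin-tool dosed one day after seeding with one drug alone or with a fixed anchor-drug dose plus five library-drug doses (not always all listed) in √10 steps, then fixed, stained and imaged at 4× after 5 days.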

AGI-6780 + Bortezomib = compound: O=C(Nc1cccc(C(F)(F)F)c1)Nc1cc(S(=O)(=O)NC2CC2)ccc1-c1ccsc1 [AGI-6780] + CC(C)C[C@H](NC(=O)[C@H](Cc1ccccc1)NC(=O)c1cnccn1)B(O)O [Bortezomib] (partner 0.002 µM)
How it was run: as §1

AGI-6780 + Foretinib = compound: O=C(Nc1cccc(C(F)(F)F)c1)Nc1cc(S(=O)(=O)NC2CC2)ccc1-c1ccsc1 [AGI-6780] + COc1cc2c(Oc3ccc(NC(=O)C4(C(=O)Nc5ccc(F)cc5)CC4)cc3F)ccnc2cc1OCCCN1CCOCC1 [Foretinib] (partner 0.25 µM)
How it was run: as §1

AGI-6780 + Pictilisib = compound: O=C(Nc1cccc(C(F)(F)F)c1)Nc1cc(S(=O)(=O)NC2CC2)ccc1-c1ccsc1 [AGI-6780] + CS(=O)(=O)N1CCN(Cc2cc3nc(-c4cccc5[nH]ncc45)nc(N4CCOCC4)c3s2)CC1 [Pictilisib] (partner 1 µM)
How it was run: as §1

Cell Line | relative viability (AGI-6780 + Palbociclib; first compound 0.08 µM) | relative viability (AGI-6780 + Palbociclib; first compound 0.253 µM) | relative viability (AGI-6780 + Palbociclib; first compound 0.8 µM) | relative viability (AGI-6780 + Palbociclib; first compound 2.53 µM) | relative viability (AGI-6780 + Palbociclib; first compound 8 µM) | relative viability (AGI-6780 + Bortezomib; first compound 0.08 µM) | relative viability (AGI-6780 + Bortezomib; first compound 0.253 µM) | relative viability (AGI-6780 + Bortezomib; first compound 0.8 µM) | relative viability (AGI-6780 + Bortezomib; first compound 2.53 µM) | relative viability (AGI-6780 + Bortezomib; first compound 8 µM) | relative viability (AGI-6780 + Foretinib; first compound 0.253 µM) | relative viability (AGI-6780 + Foretinib; first compound 0.8 µM) | relative viability (AGI-6780 + Foretinib; first compound 2.53 µM) | relative viability (AGI-6780 + Foretinib; first compound 8 µM) | relative viability (AGI-6780 + Pictilisib; first compound 0.08 µM) | relative viability (AGI-6780 + Pictilisib; first compound 0.253 µM) | relative viability (AGI-6780 + Pictilisib; first compound 0.8 µM) | relative viability (AGI-6780 + Pictilisib; first compound 2.53 µM) | relative viability (AGI-6780 + Pictilisib; first compound 8 µM) | relative viability (AGI-6780 + Foretinib; first compound 0.08 µM)
HCC-78 | 0.457 | 0.395 | 0.443 | 0.42 | 0.458 | 0.479 | 0.432 | 0.739 | 0.626 | 0.581 | 0.53 | 0.676 | 0.606 | 0.688 | 0.159 | 0.241 | 0.299 | 0.152 | 0.249 | –
HCC-366 | 0.369 | 0.388 | 0.41 | 0.29 | 0.405 | 1.1 | 1.06 | 1.03 | 1.02 | 1.11 | 0.951 | 0.96 | 0.881 | 0.828 | 0.185 | 0.111 | 0.108 | 0.15 | 0.175 | 0.857
HCC-827 | 0.485 | 0.488 | 0.478 | 0.466 | 0.481 | 0.927 | 1.1 | 0.996 | 1.12 | 1.15 | 1.09 | 1.1 | 0.938 | 1.03 | 0.896 | 0.916 | 1.03 | 0.856 | 0.823 | 1.09
HOP-62 | 0.375 | 0.47 | 0.516 | 0.467 | 0.543 | 0.496 | 0.818 | 0.737 | 1.02 | 0.763 | 1.06 | 1.14 | 1.16 | 1.15 | 0.815 | 0.928 | 0.88 | 0.651 | 0.786 | 1.08
IA-LM | – | – | – | – | – | 0.91 | 0.876 | 0.811 | 0.977 | 0.829 | 1.13 | 1.21 | 1.13 | 1.15 | 0.452 | 0.38 | 0.39 | 0.301 | 0.476 | 1.28
LC-2-ad | 0.536 | 0.525 | 0.524 | 0.526 | 0.463 | 1.02 | 1.05 | 0.994 | 1.04 | 1.01 | 0.849 | 1.04 | 0.913 | 0.901 | 0.598 | 0.726 | 0.532 | 0.381 | 0.456 | 0.939
LK-2 | 0.671 | 0.643 | 0.823 | – | 0.679 | – | – | – | – | – | 1.15 | 1.21 | – | 1.53 | 0.413 | 0.461 | 0.601 | – | 0.505 | 1.23
NCI-H358 | 0.129 | 0.131 | 0.119 | 0.138 | 0.154 | – | – | – | – | – | 0.688 | 0.647 | 0.573 | 0.79 | 0.355 | 0.38 | 0.355 | 0.289 | 0.336 | 0.631
NCI-H522 | 0.97 | 0.972 | 0.968 | – | 0.86 | – | – | – | – | – | – | – | – | – | – | – | – | – | – | –
NCI-H596 | – | – | – | – | – | – | 1.04 | 0.761 | 0.918 | 1.13 | 1.01 | 0.788 | – | 1.06 | 0.419 | 0.399 | 0.376 | 0.382 | 0.476 | 0.978
NCI-H1299 | – | – | – | – | – | 1.06 | 1.03 | 0.944 | 1.02 | 1.03 | 1.07 | 1.07 | 1.05 | 1.12 | 0.781 | 0.733 | 0.639 | 0.765 | 0.742 | 1.09
NCI-H1395 | 0.629 | 0.603 | 0.616 | 0.572 | 0.656 | – | – | – | – | – | 0.986 | 0.979 | 0.901 | 0.931 | 0.638 | 0.626 | 0.574 | – | 0.65 | 0.917
NCI-H1563 | – | – | – | – | – | 1 | 0.918 | 0.843 | 0.75 | 0.824 | 0.977 | 1.02 | 0.89 | 0.992 | 0.621 | 0.629 | 0.628 | 0.614 | 0.519 | 0.901
NCI-H1648 | 0.242 | 0.232 | 0.335 | 0.26 | 0.25 | – | – | – | – | – | – | – | – | – | – | – | – | – | – | –
NCI-H1703 | – | – | – | – | – | 0.473 | 0.315 | 0.509 | 0.364 | 0.375 | 0.327 | 0.333 | 0.36 | 0.393 | 0.336 | 0.197 | 0.259 | 0.223 | 0.248 | –
NCI-H1792 | – | 0.574 | 0.668 | 0.66 | 0.615 | 0.834 | 0.917 | 1.01 | 0.867 | 0.862 | – | – | – | – | 0.302 | 0.279 | 0.281 | 0.245 | 0.242 | –
NCI-H1793 | 0.347 | 0.328 | 0.342 | 0.262 | 0.287 | – | – | – | – | – | 0.745 | 0.771 | 0.555 | 0.603 | 0.272 | 0.364 | 0.351 | 0.344 | 0.303 | 0.729
NCI-H1944 | 0.365 | 0.331 | 0.32 | – | 0.403 | – | – | – | – | – | 0.885 | 0.93 | – | 0.869 | 0.358 | 0.366 | 0.386 | 0.323 | 0.381 | 1.03
NCI-H2170 | 0.393 | 0.421 | 0.43 | – | 0.376 | – | – | – | – | – | 0.978 | 1.1 | 0.928 | 0.984 | 0.348 | 0.358 | 0.328 | – | 0.303 | 0.994
NCI-H2342 | 0.506 | 0.504 | 0.509 | 0.478 | 0.548 | – | – | – | – | – | 1.11 | 1.05 | 0.978 | 1.12 | – | – | – | – | – | 1.11
SK-MES-1 | 0.31 | 0.346 | 0.27 | 0.285 | 0.294 | – | – | – | – | – | 1.01 | 0.773 | 0.709 | 0.833 | 0.365 | 0.367 | 0.338 | 0.273 | 0.344 | 0.896
SW 900 | 0.629 | 0.527 | 0.496 | 0.566 | 0.552 | – | – | – | – | – | 0.763 | 1.03 | 0.81 | 0.917 | – | – | – | – | – | 0.953
